Assay results published in patent publication US9696323B2, “Biomarkers for chagas disease related cardiomyopathy” (THE BOARD OF REGENTS OF THE UNIVERSITY OF TEXAS SYSTEM, priority 2013, dated 2017).

System: T. cruzi
Test: 2D-GE plasma proteome profile (differential protein expression) of T. cruzi-infected rats treated with PBN and/or BZ
Type: in vivo, rat
Details: plasma
Text: Certain embodiments include biomarkers identified in a previous study. Parasite persistence and oxidative damage in the heart are known to be of pathological significance during Chagas disease (Zacks et al., (2005) An Acad Bras Cienc, 77, 695-715; Gupta et al., (2009) Interdiscip Perspect Infect Dis, 2009, 190354). […] In the previous study the inventors identified 92 proteins that were differentially expressed or oxidized in chagasic plasma. Functional analysis allocated a majority of these proteins to inflammation/immunity and lipid metabolism categories, and to molecular pathways associated with cardiovascular dysfunction, e.g., myocardial infarction, hypertrophy, and fibrosis, and pulmonary embolism and hypertension. Some proteins in chagasic rats treated with PBN and/or BZ were allocated to curative pathways (immune regulation and cardiac remodeling). The 2D-GE results were validated by Western blotting. […] Increased plasma levels of GSN, MYL2, and VIM were directly correlated with the severity of cardiac disease in human chagasic patients. […] These findings have utility in diagnosing disease severity and designing suitable therapy for management of human chagasic patients.
Ingenuity Pathway Analysis (IPA) is a highly curated and comprehensive software used for the integration of proteins into networks and pathways with biological meaning (Thomas and Bonchev, (2010). Hum Genomics, 4, 353-360). Network analysis of the plasma proteome profile of chagasic rats identified four major sub-networks linked to host response to T. cruzi infection and disease development (Table V). The maximal numbers of the differentially expressed plasma proteins (19 proteins) in chagasic rats were associated with antigen presentation and inflammatory response category (Table V) and indicators of persistent inflammation, known to be of pathological significance in Chagas disease (Dhiman et al., (2009) Clinical and Vaccine Immunology, 16, 660-666; Tanowitz et al., (2009) Prog Cardiovasc Dis, 51, 524-539; Junqueira et al., (2010) Expert Rev Mol Med, 12, e29). Following functional analysis of the inflammation-associated proteins, 12 proteins (APOA1, APOE, C3, CFB, CFH, FGB, GSN, KRT10, PLG, SCG2, SERPINA1, and SERPINC1) were identified as being involved in immune cell trafficking and cell movement of leukocytes, granulocytes, phagocytes, neutrophils, and dendritic and antigen presenting cells. Some of the differentially expressed proteins in inflammation category were associated with activation (APOE, C3, CFH, GC and PLG), chemotaxis (C3, SCG2, SERPINA1, SERPINC1), and infiltration of leukocytes (APOA1, APOE, C3, PLG, KRT10) and neutrophils (C3, CFB, CFH, PLG). Up regulation of APOE, APOA1, APOH, GC and PLG in chagasic plasma was indicative of activation, binding and accumulation of macrophages in the disease state. Of the 19 differentially expressed inflammation-associated proteins, 11 proteins (APOE, C3, CFB, CFH, GSN, KRT10, SCG2, SERPINA1, SERPINC1, GC, and PLG) were carbonylated in chagasic plasma. […] Other proteins (APOE, C3, KRT3, and SCG2) were exposed to oxidation due to T. cruzi-induced, acute oxidative stress, but were normalized in expression and oxidation during the chronic phase.
Seventeen of the differentially expressed proteins in chagasic plasma, i.e., AFM, C4BPA, CACNA1D, DLGAP2, GC, KNG1, MUG1, MYLPF, MY05A, MY05B, PRPH, PZP, RAI14, and SCG2, were allotted to the lipid metabolism/molecular transport/small molecule biochemistry category (Table V) and functionally linked by IPA network analysis to lipid, fatty acid, and carbohydrate metabolism. A majority of the proteins in this category, i.e., ALB, APOA1, APOA4, APOE, APOH, C3, GC, GNAQ, MY05A, PLG, SCD2, SERPINA1, SERPINC1 and VIM, were linked to the synthesis, metabolism, transport, and modification of lipids and fatty acids, and to uptake and release or efflux of lipids, eicosanoids, and cholesterol. […]

[1] = RCP/RCB/RCPB groups (chronic infection)

## CC(C)(C)/[N+]([O-])=C/c1ccccc1 [PBN]
RAP group (acute infection)
  Spot# 979 Average Normalized Density × 100,000: 59.46
  Spot# 992 Average Normalized Density × 100,000: 34.51
[1]
  Spot# 12, 180 Average Normalized Density × 100,000: 7.22
  Spot# 34 Average Normalized Density × 100,000: 0.45
  Spot# 37, 593 Average Normalized Density × 100,000: 6.48
  Spot# 49, 673 Average Normalized Density × 100,000: 13.39
  Spot# 52, 54, 302 Average Normalized Density × 100,000: 14.45
  Spot# 53, 225 Average Normalized Density × 100,000: 15.12
  Spot# 72 Average Normalized Density × 100,000: 16.43
  Spot# 73, 705, 787 Average Normalized Density × 100,000: 38.67
  Spot# 77 Average Normalized Density × 100,000: 8.675
  Spot# 88 Average Normalized Density × 100,000: 40.49
  Spot# 94 Average Normalized Density × 100,000: 2.55
  Spot# 115, 123 Average Normalized Density × 100,000: 10.96
  Spot# 149 Average Normalized Density × 100,000: 4.39
  Spot# 153 Average Normalized Density × 100,000: 10.34
  Spot# 177 Average Normalized Density × 100,000: 1.60
  Spot# 181 Average Normalized Density × 100,000: 1.90
  Spot# 184, 257, 328 Average Normalized Density × 100,000: 5.85
  Spot# 207, 555 Average Normalized Density × 100,000: 9.12
  Spot# 215 Average Normalized Density × 100,000: 1.97
  Spot# 266 Average Normalized Density × 100,000: 0.54
  Spot# 299 Average Normalized Density × 100,000: 1.17
  Spot# 315 Average Normalized Density × 100,000: 8.23
  Spot# 334 Average Normalized Density × 100,000: 0.71
  Spot# 341 Average Normalized Density × 100,000: 1.10
  Spot# 355, 359 Average Normalized Density × 100,000: 2.20
  Spot# 382, 385, 378, 572, 578, 595 Average Normalized Density × 100,000: 3.29
  Spot# 389 Average Normalized Density × 100,000: 4.32
  Spot# 430 Average Normalized Density × 100,000: 8.21
  Spot# 434, 678 Average Normalized Density × 100,000: 24.63
  Spot# 439 Average Normalized Density × 100,000: 14.99
  Spot# 452 Average Normalized Density × 100,000: 10.01
  Spot# 464 Average Normalized Density × 100,000: 6.65
  Spot# 479 Average Normalized Density × 100,000: 32.56
  Spot# 493 Average Normalized Density × 100,000: 13.46
  Spot# 515 Average Normalized Density × 100,000: 7.78
  Spot# 524 Average Normalized Density × 100,000: 21.96
  Spot# 551, 587, 908 Average Normalized Density × 100,000: 54.1
  Spot# 559 Average Normalized Density × 100,000: 27.58
  Spot# 571 Average Normalized Density × 100,000: 38.63
  Spot# 576, 620 Average Normalized Density × 100,000: 16.66
  Spot# 586, 614 Average Normalized Density × 100,000: 38.00
  Spot# 592 Average Normalized Density × 100,000: 31.55
  Spot# 604 Average Normalized Density × 100,000: 23.66
  Spot# 606 Average Normalized Density × 100,000: 5.58
  Spot# 627 Average Normalized Density × 100,000: 54.85
  Spot# 638 Average Normalized Density × 100,000: 5.92
  Spot# 649 Average Normalized Density × 100,000: 37.11
  Spot# 651 Average Normalized Density × 100,000: 57.85
  Spot# 655 Average Normalized Density × 100,000: 149.20
  Spot# 672 Average Normalized Density × 100,000: 17.65
  Spot# 676 Average Normalized Density × 100,000: 42.59
  Spot# 691 Average Normalized Density × 100,000: 16.29
  Spot# 715 Average Normalized Density × 100,000: 32.20
  Spot# 724 Average Normalized Density × 100,000: 2.23
  Spot# 728 Average Normalized Density × 100,000: 1.13
  Spot# 733 Average Normalized Density × 100,000: 2.44
  Spot# 740 Average Normalized Density × 100,000: 7.33
  Spot# 745 Average Normalized Density × 100,000: 3.21
  Spot# 749 Average Normalized Density × 100,000: 1.70
  Spot# 766 Average Normalized Density × 100,000: 6.32
  Spot# 779, 909 Average Normalized Density × 100,000: 6.88
  Spot# 796 Average Normalized Density × 100,000: 8.33
  Spot# 814 Average Normalized Density × 100,000: 1.56
  Spot# 817 Average Normalized Density × 100,000: 29.59
  Spot# 820, 1081 Average Normalized Density × 100,000: 2.20
  Spot# 827 Average Normalized Density × 100,000: 17.80
  Spot# 832 Average Normalized Density × 100,000: 7.55
  Spot# 860 Average Normalized Density × 100,000: 5.79
  Spot# 867 Average Normalized Density × 100,000: 3.00
  Spot# 881 Average Normalized Density × 100,000: 6.68
  Spot# 897 Average Normalized Density × 100,000: 31.94
  Spot# 900 Average Normalized Density × 100,000: 44.00
  Spot# 906 Average Normalized Density × 100,000: 87.74
  Spot# 966 Average Normalized Density × 100,000: 59.29
  Spot# 979 Average Normalized Density × 100,000: 41.38
  Spot# 992 Average Normalized Density × 100,000: 57.94
